Experimental data published in publication PMC7922108, “Three Novel Biphenanthrene Derivatives and a New Phenylpropanoid Ester from Aerides multiflora and Their α-Glucosidase Inhibitory Activity” (Plants, 2021).
≈ marks a conversion by molar mass, not a printed value. Entries after “also recorded” stand apart in the source; their conditions may differ.

What was measured:
[1] = target: Yeast α-glucosidase enzyme; assay: α-Glucosidase inhibition assay (PNPG substrate); assay type: biochemical; conditions: for IC50 / IC50 (μg/mL), α-glucosidase inhibitory activity: NA = no inhibitory activity, acarbose positive control
Protocol: Yeast α-glucosidase enzyme was used in this study. In general, α-glucosidase enzymes can be obtained from several sources, for example, Saccharomyces cerevisiae, Rattus norvegicus, and GANC-human.
The assays were performed following previous protocols. […] Each sample was initially dissolved in 50% DMSO. Then, 0.1 U/mL of α-glucosidase (40 μL) in phosphate buffer (pH 6.8) was added to each well of a 96-well plate which contained the sample solution (10 μL). The plate was pre-incubated at 37 °C for 10 min. Then, 2 mM p-nitrophenol-α-D-glucopyranoside (50 μL) was added, and the mixture was incubated again at 37 °C for 20 min. Finally, 1 M Na2CO3 solution (100 μL) was added to terminate the reaction. The absorbance of the mixture was measured at 405 nm using a microplate reader. Two-fold serial dilution was performed for IC50 determination. The drug acarbose was used as the positive control.

[2] = tested on: Yeast α-glucosidase enzyme; assay: Enzyme kinetics study, Lineweaver–Burk plot and secondary plot; assay type: biochemical; conditions: for Mode of enzyme inhibition: from Lineweaver–Burk plot; for Km / Vmax: PNPG 0.25–2.0 mM
Protocol: A kinetics study was then performed on compound 3 to analyze the mode of enzyme inhibition using various substrate concentrations (0.25–2.0 mM).
The mode of enzyme inhibition of the test compound was determined using the double reciprocal Lineweaver–Burk plot (1/V vs. 1/[S]). The experiment was performed by varying the PNPG concentrations (0.25, 0.5, 1.0, and 2.0 mM) in the absence or presence of compound 3 (4 μM and 8 μM) or acarbose (930 μM and 465 μM). The secondary plot was constructed by replotting the slopes of the lines against inhibitor concentrations, and the Ki was calculated from the line equation of the plot.

With `COc1cc(O)cc2c1-c1cc(O)c(O)cc1CC2` [5-methoxy-9,10-dihydrophenanthrene-2,3,7-triol] the IC50 [1] was 115 ± 9.1 µM and the “IC50 (μg/mL), α-glucosidase inhibitory activity” value [1] was 29.7 ± 2.3 µg/mL (≈ 115 µM).
`COc1cc2c(cc1O)CCc1cc(O)cc(OC)c1-2` [6-Methoxy coelonin (5), 6-methoxycoelonin] was tested, and the IC50 [1] was 225 ± 7.8 µM and the “IC50 (μg/mL), α-glucosidase inhibitory activity” value [1] was 61.2 ± 2.2 µg/mL (≈ 225 µM).
`COc1cc2c(cc1O)CCc1c(Oc3cc4c(cc3OC)-c3c(cc(O)cc3OC)CC4)c(O)cc(OC)c1-2` [Aerimultin A (1), aerimultin A] was tested, and the IC50 [1] was 30.9 ± 1.9 µM and the “IC50 (μg/mL), α-glucosidase inhibitory activity” value [1] was 16.8 ± 1.0 µg/mL (≈ 31 µM).
In the case of `COc1cc2c(ccc3c(-c4c(O)cc5c6c4ccc4cc(O)c(OC)c(c46)CO5)c(O)cc(OC)c32)cc1O` [Aerimultin B (2), aerimultin B], the IC50 [1] is reported as 77 ± 2.5 µM and the “IC50 (μg/mL), α-glucosidase inhibitory activity” value [1] is reported as 41.8 ± 1.3 µg/mL (≈ 77.9 µM).
In the case of `COc1cc(O)c(-c2c(O)cc(OC)c3c2ccc2cc(O)c(O)cc23)c2ccc3cc(O)c(O)cc3c12` [Aerimultin C (3), aerimultin C], the “α-Glucosidase inhibitory activity (in words)” value [1] is reported as “most potent activity”, the IC50 [1] is reported as 5.2 ± 0.7 µM and the “IC50 (μg/mL), α-glucosidase inhibitory activity” value [1] is reported as 2.7 ± 0.4 µg/mL (≈ 5.29 µM). The “Mode of enzyme inhibition” value [2] was “non-competitive inhibition; also recorded: potent non-competitive inhibitor”, the “Mode of enzyme inhibition” value ([2]; listed as aerimultin (3)) was “non-competitive type of inhibition” and the Ki ([2]; from secondary plot (slopes vs inhibitor concentrations)) was 4.18 µM. The Km ([2]; inhibitor dose 4 μM) was 1220 µM, the Vmax ([2]; inhibitor dose 4 μM) was 0.055 ∆OD/min and the Km ([2]; inhibitor dose 8 μM) was 1200 µM. The Vmax ([2]; inhibitor dose 8 μM) was 0.035 ∆OD/min.
For `COc1cc2c(ccc3c(-c4c(O)cc(OC)c5c4ccc4cc(O)c(OC)cc45)c(O)cc(OC)c32)cc1O` [Agrostonin (8), agrostonin], the IC50 [1] was 37.2 ± 4.5 µM and the “IC50 (μg/mL), α-glucosidase inhibitory activity” value [1] was 20.1 ± 2.5 µg/mL (≈ 37.3 µM).
`COc1cc(CCCOC(=O)CCc2ccc(O)cc2)ccc1O` [Dihydroconiferyl dihydro-p-coumarate (9), dihydroconiferyl dihydro-p-coumarate] was tested, and the IC50 [1] was 267 ± 8.6 µM and the “IC50 (μg/mL), α-glucosidase inhibitory activity” value [1] was 88.1 ± 2.9 µg/mL (≈ 267 µM).
`COc1cc(CCC(=O)OCCCc2cc(OC)c(O)c(OC)c2)ccc1O` [Dihydrosinapyl dihydroferulate (4), dihydrosinapyl dihydroferulate] was tested, and the “α-Glucosidase inhibitory activity (in words)” value [1] was “total loss of activity”.
`COc1cc(O)cc(CCc2ccc(O)c(OC)c2)c1` [Gigantol (6), gigantol] was tested, and the IC50 [1] was 191 ± 6.8 µM and the “IC50 (μg/mL), α-glucosidase inhibitory activity” value [1] was 52.5 ± 1.9 µg/mL (≈ 191 µM).
In the case of `COc1c(O)cc2c3c1COc1cc(O)cc(c1-3)CC2` [Imbricatin (7), imbricatin], the IC50 [1] is reported as 166 ± 7.7 µM and the “IC50 (μg/mL), α-glucosidase inhibitory activity” value [1] is reported as 44.9 ± 2.1 µg/mL (≈ 166 µM).
